We go through 46 molecules from ChEMBL document CHEMBL3507680, “University of Dundee, Gates Library screen for HepG2 cell viability”.

The nature of data set [1]: Human HepG2 cell viability assay in 384 well format. The arrangement: dose 125 nL, time 70.5 hour; concentration not given beside the values. The conditions noted are these: HepG2 cells, read-out: Inhibition. The format is toxicity, cell-based.
The nature of data set [2]: Human HepG2 cell viability dose-response assay. The class given is toxicity, cell-based.

Where “and” joins values, the source holds several entries; their conditions need not be identical. Identical values can stand only once. A value given as a limit tells only on which side of the number the result lay.

For `CCCc1nc2c(c(C)c(C)n2Cc2ccccn2)c(N)c1CC`, the cytotoxicity at 70.5 h in data set [1] is 80.2%. Also, in data set [2], the BOTTOM was 13.8 and 17.26; the HILLSLOPE is 1.43 and 1.529; the TOP stood at 100; the pXC50 was 5.166 and 5.178.

With `COc1cc(NC(=O)C2CC(=O)N(c3cccc(Br)c3)C2)ncn1` (centres undefined), the cytotoxicity at 70.5 h in data set [1] stood at 91.5%. In data set [2], the BOTTOM was 13.61 and 20.88; the HILLSLOPE was 5.533 and 3.735; the TOP was 100.7 and 101.2; the pXC50 was 5.491 and 5.506.

Consider `c1cncc(CN2CCCn3nnc(CN4CCCCC4)c3C2)c1`, for which, in data set [1], the cytotoxicity at 70.5 h was 65.6%. In data set [2], this molecule displayed a BOTTOM of 0, an HILLSLOPE of 0, a TOP of 0 and a pXC50 of less than 4.53.

`O=C(C[C@@H]1COC[C@H]2CN(C3CCOCC3)C[C@@H]12)Nc1cnccn1`: the cytotoxicity at 70.5 h in data set [1] turned out to be 76.4%. In data set [2], the BOTTOM was found to be 0, the HILLSLOPE worked out at 0, the TOP amounted to 0 and the pXC50 is given as less than 4.53.

Take `COC[C@H]1CCC[C@]12CN(Cc1cccc(C)n1)CCO2`: the cytotoxicity at 70.5 h in data set [1] stood at 63.1%. Besides, in data set [2], the BOTTOM turned out to be 0, the HILLSLOPE was 0, the TOP is 0 and the pXC50 is recorded as less than 4.53.

In the case of `O=C(Cn1cc(-c2ccccc2)ncc1=O)Nc1nc(C2CC2)n[nH]1`, the cytotoxicity at 70.5 h in data set [1] amounted to 99.8%. In data set [2], the BOTTOM was -8.692 and -5.853; the HILLSLOPE is 2.68 and 2.241; the TOP was 101 and 102.4; the pXC50 was 5.614 and 5.594.

With `CCS(=O)(=O)N1CCc2ccc(NC(=O)Nc3cccc(SC)c3)cc21`, in data set [1], the cytotoxicity at 70.5 h was 63.9%. Further, in data set [2], the BOTTOM was -6.506 and -6.611; the HILLSLOPE is 1.266 and 1.157; the TOP is 100; the pXC50 was 5.029 and 4.966.

With `CSc1ccc(NC(=O)Nc2ccc3c(c2)N(S(C)(=O)=O)CC3)cc1`, the cytotoxicity at 70.5 h in data set [1] came out at 68.5%. In data set [2], the BOTTOM was -10.17 and -8.332; the HILLSLOPE was 0.8924 and 0.8709; the TOP was 100; the pXC50 is 4.975 and 4.922.

With `CCc1ccc(-c2cc(C(F)(F)F)nc(N3CCC(N)CC3)n2)cc1`, in data set [1], the cytotoxicity at 70.5 h was found to be 101%. In data set [2], the BOTTOM is 0.817 and 1.062; the HILLSLOPE is 8.779 and 6.129; the TOP is 102.2 and 102.5; the pXC50 was 5.566 and 5.542.

As to `Cc1cccc(C)c1Nc1noc2c1CN(C(=O)c1ccnn1C)CC2`, the cytotoxicity at 70.5 h in data set [1] amounted to 69.8%. In addition, in data set [2], the BOTTOM is -5.714 and -2.53; the HILLSLOPE was 1.878 and 1.75; the TOP was determined as 100; the pXC50 was 4.825 and 4.807.

As to `Cc1cccc(CN2CCCC2c2cccc(Nc3nccs3)n2)c1` (centres undefined), the cytotoxicity at 70.5 h in data set [1] was 84.1%. In data set [2], the HILLSLOPE was 2.773 and 1.557; the TOP was 82.62 and 100; the pXC50 is 6.512 and 6.485.

On to `CC(C)Nc1cc(-c2c[nH]nc2C2CCN(C(=O)C3CC3)C2)ccn1` (centres undefined), for which the cytotoxicity at 70.5 h in data set [1] worked out at 96.7%. Moreover, in data set [2], the HILLSLOPE was 3.535 and 2.719; the TOP is 97.3 and 97.69; the pXC50 was 6.519 and 6.486.

As to `CC(C)CNc1cc(-c2c[nH]nc2C2CCN(C(=O)C3CC3)C2)ccn1` (centres undefined), in data set [1], the cytotoxicity at 70.5 h came to 95.1%. Moreover, in data set [2], the BOTTOM was -0.825 and -1.513; the HILLSLOPE was 7.855 and 3.586; the TOP was 97.39 and 97.86; the pXC50 was 6.385 and 6.436.

On to `COc1ccc(CNC(Cc2ccsc2)c2ccc(C)cn2)c(OC)c1` (centres undefined), for which the cytotoxicity at 70.5 h in data set [1] worked out at 85.3%. In addition, in data set [2], the HILLSLOPE is 2.726 and 2.464; the TOP is 91.22 and 91.65; the pXC50 was 5.292 and 5.344.

As to `O=C(c1cccc2cccnc12)N1CC[C@@]2(CCCO2)[C@@H](O)C1`, the cytotoxicity at 70.5 h in data set [1] is 74.5%. In data set [2], the BOTTOM is -1.598 and -1.635; the HILLSLOPE was 1.904 and 1.967; the TOP is recorded as 100; the pXC50 is 4.773 and 4.744.

For the molecule `CC(C)c1cc(NC(=O)Cn2cnc3ccccc3c2=O)[nH]n1`, in data set [1], the cytotoxicity at 70.5 h worked out at 104%. Moreover, in data set [2], the BOTTOM is -4.443 and -6.453; the HILLSLOPE was 2.259 and 2.3; the TOP is 101.3 and 101.4; the pXC50 was 5.61 and 5.595.

`CC(C)OCCN1CCC(Nc2nccnc2C#N)CC1`: the cytotoxicity at 70.5 h in data set [1] was 62.9%. In addition, in data set [2], the BOTTOM was -6.463 and -12.72; the HILLSLOPE is 1.108 and 0.9682; the TOP worked out at 100; the pXC50 was 5.071 and 5.086.

On to `CC(C)N(C)C(=O)c1ccc(CNc2ccncc2Cl)cc1`, for which the cytotoxicity at 70.5 h in data set [1] stood at 74.8%. In data set [2], this molecule registered a BOTTOM of 0, an HILLSLOPE of 0, a TOP of 0 and a pXC50 of less than 4.53.

For the molecule `CC(C)n1ccc(C(=O)NCC(O)c2c(Cl)cccc2Cl)n1` (centres undefined), the cytotoxicity at 70.5 h in data set [1] was 65.8%. Besides, in data set [2], the BOTTOM was found to be 0, the HILLSLOPE is on record as 0, the TOP was found to be 0 and the pXC50 is reported as less than 4.53.

Take `CN(C(=O)[C@H]1CSCN1C(=O)OC(C)(C)C)C1CC1`: in data set [1], the cytotoxicity at 70.5 h came to 73.6%. In data set [2], this molecule had a BOTTOM of 0, an HILLSLOPE of 0, a TOP of 0 and a pXC50 of less than 4.53.

`Cc1cc(C)cc(C(=O)NCCCNc2ncccn2)c1`: the cytotoxicity at 70.5 h in data set [1] was found to be 101%. Further, in data set [2], the BOTTOM is -7.868 and -9.506; the HILLSLOPE is 17.28 and 6.436; the TOP is 100.1 and 99.9; the pXC50 was 5.413.

As to `CC(C)c1ccc(CN2C(=O)C3(CCNCC3)Nc3ccccc32)cc1`, the cytotoxicity at 70.5 h in data set [1] stood at 105%. Further, in data set [2], the BOTTOM was -7.959 and -9.531; the HILLSLOPE was 9.317 and 9.377; the TOP was 102.3 and 101.9; the pXC50 was 4.989 and 5.005.

As to `Clc1ccccc1C1(c2ccnc(C3CCCC3)n2)CCNCC1`, the cytotoxicity at 70.5 h in data set [1] worked out at 73%. In data set [2], the BOTTOM is 17.52 and 27.16; the HILLSLOPE was 2.801 and 2.528; the TOP is 108.2 and 108.3; the pXC50 was 5.086 and 5.104.

With `COCc1noc(-c2ccc(N(C)Cc3ncccc3C)nc2)n1`, the cytotoxicity at 70.5 h in data set [1] was 73.3%. Besides, in data set [2], the BOTTOM is -13.69 and -12.76; the HILLSLOPE was 1.85 and 1.799; the TOP is reported as 100; the pXC50 came to 5.092.

As to `COc1ccccc1N1CCN(C(=O)CSCC2CC2)C(C)C1` (centres undefined), the cytotoxicity at 70.5 h in data set [1] was found to be 97.2%. In data set [2], this molecule had a BOTTOM of 0, an HILLSLOPE of 0, a TOP of 0 and a pXC50 of less than 4.53.

Take `CC1(C)Cc2nc(C(C)(C)C)ncc2C(NC(=O)C2(N)CC2)C1` (centres undefined): in data set [1], the cytotoxicity at 70.5 h was determined as 105%. Besides, in data set [2], the BOTTOM was found to be 0, the HILLSLOPE was determined as 0, the TOP stood at 0 and the pXC50 is less than 4.53.

As to `C=Cc1ccc(CN2C(=O)C3(CCNCC3)Nc3ccccc32)cc1`, the cytotoxicity at 70.5 h in data set [1] came out at 102%. In addition, in data set [2], the BOTTOM is -4.877 and -3.437; the HILLSLOPE is 10.74 and 12.71; the TOP is listed as 102; the pXC50 was 5.033 and 5.016.

As to `COc1cccc(CNC(=O)N2CCN(Cc3cc(C)on3)CC2)c1`, the cytotoxicity at 70.5 h in data set [1] is -20.5%.

Consider `CCc1c(C(=O)NC2CCS(=O)(=O)C2)cnn1-c1ccc(F)cc1` (centres undefined), for which the cytotoxicity at 70.5 h in data set [1] is -22.6%.

`CCOc1ccc(C#N)cc1NCC(=O)Nc1cc(F)ccc1F`: in data set [1], the cytotoxicity at 70.5 h was found to be 6.71%.

Take `CCOc1ccc(C#N)cc1NCC(=O)Nc1cc(C)no1`: the cytotoxicity at 70.5 h in data set [1] was -14.1%.

Turning to `CCc1c(C(=O)NCC(=O)OCC2CC2)cnn1-c1ccc(C)cc1`, the cytotoxicity at 70.5 h in data set [1] amounted to 27.6%.

For the molecule `Cc1cc(CNC(=O)N2CCCN(Cc3ccccc3)CC2)no1`, the cytotoxicity at 70.5 h in data set [1] was -9.16%.

For the molecule `CCN(CC1CCCO1)C(=O)Nc1ccc(F)cc1OC` (centres undefined), in data set [1], the cytotoxicity at 70.5 h is -8.02%.

In the case of `c1ccc(-c2cnc(CN3CCCC3Cn3cncn3)o2)cc1` (centres undefined), the cytotoxicity at 70.5 h in data set [1] is -14.6%.

Regarding `CC(C)(C)c1nnc(CN2CCN(CC(O)c3ccccc3)CC2)o1` (centres undefined), the cytotoxicity at 70.5 h in data set [1] is -11.1%.

Consider `Cc1cccc(NC2CCN(C(=O)Nc3cccc4[nH]ccc34)CC2)n1`, for which, in data set [1], the cytotoxicity at 70.5 h is -8.86%.

For `CCC(O)CN1CCN(C(=O)c2cccn2Cc2ccccc2)CC1` (centres undefined), the cytotoxicity at 70.5 h in data set [1] was -10.3%.

On to `Fc1cccc(-c2nc(CN3CCCCC3Cn3cncn3)co2)c1` (centres undefined), for which the cytotoxicity at 70.5 h in data set [1] is -15.4%.

For the molecule `CN(Cc1ccc(F)cc1)C(=O)NCc1nnc2n1CCCCC2`, the cytotoxicity at 70.5 h in data set [1] was 33.6%.

On to `COCCCN1CCc2cncnc2C1`, for which, in data set [1], the cytotoxicity at 70.5 h was -18.2%.

`O=C(c1cccc2c1OCO2)N1CCCC1c1noc(C2CC2)n1` (centres undefined): the cytotoxicity at 70.5 h in data set [1] amounted to 31.3%.

Consider `Cc1nc(Nc2nccs2)cc(C2CCCN2)n1.Cl` (centres undefined), for which the cytotoxicity at 70.5 h in data set [1] came out at 101%. Besides, in data set [2], the BOTTOM is 11.4 and 11.68; the HILLSLOPE was 4.445 and 3.614; the TOP is 100.1 and 100.5; the pXC50 is 5.52 and 5.57.

As for `COc1nn(C)c2c1CCCN(C(=O)c1ccc3c(c1)OCO3)C2.O=C(O)C(F)(F)F`, in data set [1], the cytotoxicity at 70.5 h came to 77.9%. Moreover, in data set [2], the BOTTOM turned out to be 0, the HILLSLOPE is 0, the TOP is on record as 0 and the pXC50 is recorded as less than 4.53.

For `COc1c(-c2ccc(O)cc2)oc2cc(O)cc(O)c2c1=O` [ISOKAEMPFERIDE], the cytotoxicity at 70.5 h in data set [1] is -8.89%.

As to `CCCNC(=O)C(C)Nc1ccc(OCC)cc1` (centres undefined) [PROPETAMIDE], the cytotoxicity at 70.5 h in data set [1] was -8.27%.
